# According to patent publication US20060009512A1, “5-ht 1b/1d receptor agonists for the treatment of headache resulting from administering an endothelin receptor antagonist” (priority 2002, published 2006):
# Entries after “also recorded” stand apart in the source; their conditions may differ.
# What was measured:
# [1] = Clinical study of safety and tolerability of multiple doses of ZD4054 in healthy young volunteers; type: in vivo, man
# Protocol: (§1) A study was undertaken to assess the safety and tolerability of multiple doses of ZD4054 in healthy young volunteers at dose levels of 100 mg, 50 mg and 25 mg daily.
# (§2) At the 100 mg dose level 16 volunteers participated (12 active and 4 placebo). They received a 100 mg ZD4054 or placebo single dose and one week later commenced daily dosing. Dosing was stopped within 3-5 days of continuous dosing in the majority of ZD4054 treated subjects due to headache. Of the 12 subjects receiving ZD4054, 10 were additionally given zolmitriptan (2.5 mg tablets) at some stage (in addition to paracetamol and in some cases ibuprofen).
# (§3) Note: all subjects received paracetamol (1 g every 4 hours for the first 16 hours post the first dose of ZD4054) on the first day of multiple dosing. Analgesics were given as required.
# [2] = man, recommended dose of 125-250 mg bid; cited from earlier work
# [3] = cancer patients, doses of 20 mg and above; cited from earlier work
# [4] = Treatment of ZD4054 induced headache in subjects of the clinical study (zolmitriptan, standard analgesics); type: in vivo, man; details: for effect of standard analgesic therapy on ZD4054 induced headaches: subjects with ZD4054 induced headache
# Protocol: Based on citations by Carducci (Carducci, 2002) a number of “standard analgesic therapies” were tried, including paracetamol, ibuprofen and codeine to treat the ZD4054 induced headaches.
# as §1, §2, §3
# An explanation of CTC grades which stands for Common Toxicity Criteria, can be found in a document from the National Institute of Health, Version 2.0, DCTD, NCI, NIH, DHHS March 1998.
structure (smiles),measurement,setting,value
"COc1nc(C)cnc1NS(=O)(=O)c1cccnc1-c1ccc(-c2nnco2)cc1 [ZD4054, N-(3-methoxy-5-methylpyrazin-2-yl)-2-(4-[1,3,4-oxadiazol-2-yl]phenyl)pyridine-3-sulphonamide]",time of continuous dosing until dosing was stopped due to headache,"[1]; 100 mg daily, majority of ZD4054 treated subjects",3 to 5 days
same,induction of headache in man,[1]; clinical testing in man,induces headaches in man
COc1ccccc1Oc1c(NS(=O)(=O)c2ccc(C(C)(C)C)cc2)nc(-c2ncccn2)nc1OCCO [Bosentan],subjects with induced headaches,[2],22%
CCCCN(CCCC)C(=O)CN1C[C@H](c2ccc3c(c2)OCO3)[C@@H](C(=O)O)[C@@H]1c1ccc(OC)cc1 [Atrasentan],incidence of headache,[3],50-100%
CC(=O)Nc1ccc(O)cc1 [paracetamol],improvement of headache,"[4]; Subject 7, CTC grade 2 headache, second day of multiple dosing",little improvement
same,headache grade despite treatment,"[4]; Subject 10, second day, increased from CTC grade 1",3 CTC grade
same,effect of standard analgesic therapy on ZD4054 induced headaches,[4],several subjects still reported persistent headache
COc1ccc2c3c1O[C@H]1[C@@H](O)C=C[C@H]4[C@@H](C2)N(C)CC[C@@]341 [codeine],effect of standard analgesic therapy on ZD4054 induced headaches,[4],several subjects still reported persistent headache
CN(C)CCc1c[nH]c2ccc(C[C@H]3COC(=O)N3)cc12 [zolmitriptan],headache grade after treatment,"[4]; Subject 7, from CTC grade 2 on second day of multiple dosing, 2.5 mg plus 2.5 mg 50 mins later, 1-1.5 hours later",1 CTC grade
same,headache grade after treatment,"[4]; Subject 10, day 3, from CTC grade 3, 2.5 mg plus 2.5 mg 50 mins later, 2.5 h later",1 CTC grade
same,headache grade after treatment,"[4]; Subject 10, second day, from CTC grade 3, 2.5 mg",2 CTC grade
same,patients noting at least at one stage that their headache was alleviated,"[4]; of 10 subjects given zolmitriptan 2.5 mg tablets, ZD4054 100 mg",Seven
same,effect on intensity/severity of ZD4054 induced headache,"[4]; subjects in which standard analgesic therapy had failed, 2.5-5 mg orally",effective in reducing the intensity of ZD4054 induced headaches in some subjects; also recorded: effective in reducing the severity of headache
CC(C)Cc1ccc(C(C)C(=O)O)cc1 (centres unmarked) [ibuprofen],effect of standard analgesic therapy on ZD4054 induced headaches,[4],several subjects still reported persistent headache
